# Patent US20120283216A1, “FUNGICIDAL 2-(BICYCLIC ARYLOXY)CARBOXAMIDES” (priority 2009, published 2012)
# Key:
# Format in all cases: in vivo
# [1] = system: Septoria tritici; test: Test B: wheat leaf blotch, preventive spray on wheat seedlings, visual disease rating; details: preventive spray at 40 ppm, rated after 48 h + 19 days; for pest or weed control at 40 ppm: Zymoseptoria tritici, 504 h, read-out: Test B disease control rating (100 = 100% disease control, 0 = no disease control relative to the controls)
# In short: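 Visual ratings of percent disease control relative to untreated controls were made 19 days after a 48 h saturated-atmosphere incubation at 20° C. Plants had been spore-inoculated one day after a preventive run-off spray at 40 ppm, equivalent to 800 g/ha.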
# [2] = system: Botrytis cinerea; test: Test C: tomato botrytis, preventive spray on tomato seedlings, visual disease rating; details: preventive spray at 40 ppm, rated after 48 h + 3 days; for pest or weed control at 40 ppm: Botrytis cinerea, 120 h, read-out: Test C disease control rating (100 = 100% disease control, 0 = no disease control relative to the controls)
# In short: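 Compounds applied at 40 ppm (≈800 g/ha) in acetone/water with surfactant, sprayed to run-off on tomato seedlings. Inoculated next day with B. cinerea spores; 48 h saturated humidity at 20 °C, then 3 days at 27 °C. Visual rating as % disease control versus untreated controls.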
# [3] = system: Blumeria graminis f. sp. tritici; test: Test A: wheat powdery mildew, preventive spray on wheat seedlings, visual disease rating; details: preventive spray at 40 ppm, rated 8 days after inoculation; for pest or weed control at 40 ppm: Blumeria graminis, 192 h, read-out: Test A disease control rating (100 = 100% disease control, 0 = no disease control relative to the controls)
# In short: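 After 8 days in a 20° C. growth chamber, disease was scored visually as % control versus untreated (100 = full control). Plants had received a run-off spray of 40 ppm (≈800 g/ha label rate) in acetone/water plus surfactant, with spore-dust inoculation one day later.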
Compound,"Test B disease control rating (100 = 100% disease control, 0 = no disease control relative to the controls) [1] [%]","Test C disease control rating (100 = 100% disease control, 0 = no disease control relative to the controls) [2] [%]","Test A disease control rating (100 = 100% disease control, 0 = no disease control relative to the controls) [3] [%]",pest or weed control at 40 ppm [1] [%],pest or weed control at 40 ppm [2] [%],pest or weed control at 40 ppm [3] [%]
C#Cc1ccc2ncc(OC(CC)C(=O)NCC(C)(C)C)cc2c1 (stereo not drawn) [Compound 153],92,93,0,–,–,–
COCC(C)(C)NC(=O)C(OC)Oc1cnc2ccc(Br)cc2c1 (stereo not drawn) [Compound 154],99,94,91,–,–,–
"CC#Cc1ccc2ncc(OC(OC)C(=O)NC(C)(C)C)cc2c1 (stereo not drawn) [Compound 156, N-(1,1-dimethylethyl)-2-methoxy-2-[[6-(1-propyn-1-yl)-3-quinolinyl]oxy]-acetamide]",–,–,–,96,99,98
CC#Cc1ccc2ncc(OC(OC)C(=O)NC(C)(C)COC)cc2c1 (stereo not drawn) [Compound 158],38,99,98,–,–,–
"CCC(Oc1ccc2ccc(C)cc2c1)C(=O)NC(C)(C)COC (stereo not drawn) [Compound 159, N-(2-methoxy-1,1-dimethylethyl)-2-[(7-methyl-2-naphthalenyl)oxy]-butanamide]",–,–,–,13,99,99
COCC(C)(C)NC(=O)C(OC)Oc1cnc2ccc(C#C[Si](C)(C)C)cc2c1 (stereo not drawn) [Compound 160],99,97,69,–,–,–
COC(Oc1cnc2ccc(C#C[Si](C)(C)C)cc2c1)C(=O)NC(C)(C)C (stereo not drawn) [Compound 161],100,99,0,–,–,–
C#Cc1ccc2ncc(OC(OC)C(=O)NC(C)(C)COC)cc2c1 (stereo not drawn) [Compound 162],100,100,100,–,–,–
C#Cc1ccc2ncc(OC(OC)C(=O)NC(C)(C)C)cc2c1 (stereo not drawn) [Compound 163],100,100,99,–,–,–
C#CC(C)(C)NC(=S)C(CC)Oc1ccc2ccc(OC)cc2c1 (stereo not drawn) [Compound 164],–,–,–,97,99,0
CCC(Oc1ccc2ccc(OC)cc2c1)C(=O)N(C)C(C)(C)C (stereo not drawn) [Compound 166],–,–,–,46,99,0
CCC(Oc1ccc2ccc(OC)cc2c1)C(=O)N(CC)C(C)(C)C (stereo not drawn) [Compound 167],–,–,–,64,68,0
